# Measurements from patent publication US9120745B2, “Triazole compounds that modualte HSP90 activity” (Synta Pharmaceuticals Corp., priority 2007, dated 2015).
# Tests used:
# Her2 = experiment: Degradation of Her2 in BT-474 cells after treatment with compound (Western blot, Method 1); format: cell-based, human; details: for IC50: treated overnight in DMEM
# Method: Human high-Her2 breast carcinoma BT474 (HTB-20), SK-BR-3 (HTB-30) and MCF-7 breast carcinoma (HTB-22) from American Type Culture Collection, VA, USA were grown in Dulbecco's modified Eagle's medium with 4 mM L-glutamine and antibiotics (100 IU/ml penicillin and 100 ug/ml streptomycine; GibcoBRL). To obtain exponential cell growth, cells were trypsinized, counted and seeded at a cell density of 0.5×10^6 cells/ml regularly, every 3 days. All experiments were performed on day 1 after cell passage.
# BT-474 cells were treated with 0.5 μM, 2 μM, or 5 μM of 17AAG (a positive control) or 0.5 μM, 2 μM, or 5 μM of a compound of the invention overnight in DMEM medium. After treatment, each cytoplasmic sample was prepared from 1×10^6 cells by incubation of cell lysis buffer (#9803, cell Signaling Technology) on ice for 10 minutes. The resulting supernatant used as the cytosol fractions are dissolved with sample buffer for SDS-PAGE and run on a SDS-PAGE gel, blotted onto a nitrocellulose membrane by using semi-dry transfer. Non-specific binding to nitrocellulose was blocked with 5% skim milk in TBS with 0.5% Tween at room temperature for 1 hour, then probed with anti-Her2/ErB2 mAb (rabbit IgG, #2242, Cell Signaling) and anti-Tubulin (T9026, Sigma) as housekeeping control protein. HRP-conjugated goat anti-rabbit IgG (H+L) and HRP-conjugated horse anti-mouse IgG (H+L) were used as secondary Ab (#7074, #7076, Cell Signaling) and LumiGLO reagent, 20× Peroxide (#7003, Cell Signaling) was used for visualization.
# [1] = test system: human multiple myeloma tumor cell line RPMI 8226; experiment: SCID mouse xenograft model, human multiple myeloma tumor cell line RPMI 8226; format: in vivo; details: RPMI 8226 xenograft in SCID mice
# Method: (§1) The human multiple myeloma cell line, RPMI 8226 (ATCC #CCL-155), and the canine osteosarcoma cell line, D-17 (ATCC #CCL-183), were obtained from the American Type Culture Collection (ATCC; Manassas, Va., USA). The cells were cultured in growth media prepared with RPMI Media 1640 (4.5 g/L glucose), 10% fetal bovine serum (FBS), 10 mM HEPES, 1% 100× Penicillin-Streptomycin, 1% 100× sodium pyruvate and 1% 100×MEM non-essential amino acids. FBS was obtained from ATCC and all other reagents were obtained from Invitrogen Corp. (Carlsbad, Calif., USA). Cells that had been cryopreserved in liquid nitrogen were rapidly thawed at 37° C. and transferred to a tissue culture flask containing growth media and then incubated at 37° C. in a 5% CO2 incubator. To expand the RPMI 8226 cell line, growth media was changed every 2-3 days and cultures were passaged 1:3 to 1:5 every 3-5 days. When the a 175 cm^2 flask reached approximately 20-40×10(6) total cells, the above passaging process was repeated until sufficient cells had been obtained for implantation into mice. […] The supernatant was aspirated and the cell pellet was resuspended in 10 mL of growth media and the cell number determined using a hemocytometer. […]
# (§2) Tumors were then permitted to develop in vivo until the majority reached 75-250 mm^3 in tumor volume, which required ˜4 weeks following implantation for the RPMI 8226 model and ˜9 weeks for the D-17 model. […] Tumor volumes (V) were calculated by caliper measurement of the width (W), length (L) and thickness (T) of tumors using the following formula: V=0.5236×(L×W×T). Animals were randomized into treatment groups so that the average tumor volumes of each group were similar at the start of dosing. % T/C values, as a measure of efficacy, were determined as follows: • (i) If ΔT>0: % T/C=(ΔT/ΔC)×100 • (ii) If ΔT<0: % T/C=(ΔT/T0)×100 • (iii) ΔT=Change in average tumor volume between start of dosing and the end of study. • (iv) ΔC=Change in average tumor volume between start of dosing and the end of study. • (v) T0=Average tumor volume at start of dosing. […]
# [2] = test system: canine osteosarcoma tumor cell line D17; experiment: SCID mouse xenograft model, canine osteosarcoma tumor cell line D17; format: in vivo; details: D17 xenograft in SCID mice
# Method: as §1, §2
structure (smiles),measurement,setting,value
"CC(C)c1cc(-c2nnc(O)n2-c2ccc3c(c2)CCC3)c(O)cc1OP(=O)(O)O [Compound 1, 4-(4-(2,3-dihydro-1H-inden-5-yl)-5-hydroxy-4H-1,2,4-triazol-3-yl)-5-hydroxy-2-isopropylphenyl dihydrogen phosphate]",IC50,Her2,228 nM
"CC(C)c1cc(-c2nnc(O)n2-c2ccc(N3CCOCC3)nc2)c(O)cc1OP(=O)(O)O [Compound 2, 5-hydroxy-4-(5-hydroxy-4-(6-morpholinopyridin-3-yl)-4H-1,2,4-triazol-3-yl)-2-isopropylphenyl dihydrogen phosphate]",IC50,Her2,90 nM
"CC(C)c1cc(-c2nnc(O)n2-c2ccc3c(ccn3C)c2)c(O)cc1OP(=O)(O)O [Compound 3, 5-hydroxy-4-(5-hydroxy-4-(1-methyl-1H-indol-5-yl)-4H-1,2,4-triazol-3-yl)-2-isopropylphenyl dihydrogen phosphate]",overt toxicity,[1]; 100 mg/kg,Overt toxicity was not observed
same,% T/C value,"[1]; 100 mg/kg body weight i.v., day 46",15%
same,average bodyweight change relative to the start of the study,"[1]; 100 mg/kg, day 46",2.1%
same,IC50,Her2,88 nM
same,overt toxicity,[2]; 61 mg/kg,Overt toxicity was not observed
same,% T/C value,"[2]; 61 mg/kg body weight i.v., day 83",6%
same,average bodyweight change relative to the start of the study,"[2]; 61 mg/kg, day 83",−0.2%
"CC(C)c1cc(-c2nnc(O)n2-c2ccc3c(ccn3C)c2)c(O)cc1OP(=O)(O)O [Compound 4, sodium 5-hydroxy-4-(5-hydroxy-4-(1-methyl-1H-indol-5-yl)-4H-1,2,4-triazol-3-yl)-2-isopropylphenyl phosphate]",IC50,Her2; phosphate,182 nM
"C=CCNC1=C2C[C@@H](C)C[C@H](OC)[C@H](O)[C@@H](C)/C=C(\C)[C@H](OC(N)=O)[C@@H](OC)/C=C\C=C(/C)C(=O)NC(=CC1=O)C2=O [Compound 17AAG, 17-allylamino-17-demethoxygeldanamycin, reference compound]",degradation of Her2,"Her2; 0.5 μM, positive control, results not shown",partial degradation
